Experimental data reported in patent US6881825B1, “Identication of peptides that facilitate uptake and cytoplasmic and/or nuclear transport of proteins, DNA and virues” (University of Pittsburgh of The Commonwealth System of …, priority 1999, dated 2005).
Entries after “also recorded” stand apart in the source; their conditions may differ. Where no end group is shown, it is not given here.

Experiments:
MCA 205 tumor cells = assay: Intra-tumoral injection of peptide-β-gal complex, X-gal staining of tumor; assay type: in vivo, mouse; conditions: day 14 subcutaneous MCA-205 tumors, single intra-tumoral injection
Protocol: (§1) Peptide 5 (SEQ ID NO:5) was able to facilitate uptake of β-gal in nearly 100% of the synovial cells in vivo (FIG. 4B).
To make the nucleic acid encoding the peptide-eGFP fusion depicted in FIG. 9A, PCR was employed using 5′ and 3′ primers that encoded the peptide and a his tag, respectively, and had complimentary sequences to eGFP DNA coding sequences. […] MCA 205 tumor cells (5×10^5 cells) were injected subcutaneously into the flank of a C57/BL6 mouse. At day 14, a single intra-tumoral injection of the peptide β-gal complex was performed. The mice were sacrificed 3 hours post-injection and the tumor tissue was isolated, sectioned and stained with X-gal.

Hig-82 cells [1] = assay: Peptide-β-gal complex internalization, X-gal staining; assay type: cell-based, rabbit; conditions: for transduction/transfer activity of the peptide (in words): as summarised with CD spectra and competition data; for relative strength of internalization of β-gal (concentration needed): FIG. 1B, various concentrations of peptide linked to β-gal, 1:1=150 nM of β-gal
Protocol: (§2) Internalizing peptides 1-6 (SEQ ID Nos:1-6 respectively), which were identified as described above in Example 3, were synthesized, and biotinylated (synthesis and biotinylation performed by the Biotech Center of the University of Pittsburgh). The biotinylated peptides were then conjugated to avidin β-gal or avidin Cy3 at room temperature for 2 hours.
(§3) The peptide conjugates were then added to cells (Hig-82 cells, rabbit synovial cells, human synovial cells, rabbit synovial lining, human primary airway cells HBE 144, human primary islet cells, murine myoblast cells C2C12, dog kidney epithelial cells MDCK, murine fibroblast cells NIH3T3 and murine tumor cells MCA 205 (human synovial cells and human primary airway cells (HBE144) were isolated from patients from the Presbyterian Hospital, University of Pittsburgh by standard techniques for establishing a primary cell culture; human islet cells were provided by the University of Miami and were isolated by standard techniques for establishing a primary cell culture; C2C12, MDCK, 3T3 and MCA205 cells were purchased from ATTC, Bethesda, Md.; all cells were cultured in DMEM and grown to 100% confluency) and incubated while gently rotating at 37° C. for 3 hours with TBS buffer. The cells were then washed 10 times with TBS buffer and fixed with 4% paraformaldehyde at room temperature for 30 minutes. Cells were then washed 3 times with TBS buffer and stained with 1 mg/ml X-gal (Bochringer Mannheim, Indianapolis) at 37° C. overnight for β-gal-conjugated peptides. Cells which were blue indicated the presence of β-gal in the cells. For Cy3-conjugated peptides, fluorescence of the cells as measured by confocal microscopy indicated the ability of the peptide to internalize the Cy3 (a small molecule cargo).
TAT-PTD (YGRKKRRQRRR; SEQ ID NO:21), and a random control peptide (ARPILEHGSDKAT; SEQ ID NO:20). […] In FIG. 1B, various concentrations of peptides linked to β-gal were tested (1:1=150 nM of β-gal).

rabbit synovial lining = assay: In vivo transfer of peptide-conjugated β-gal after injection into rabbit knee; conditions: for level of uptake of β-gal into rabbit synovial lining: FIG. 4A, injection into rabbit knee, compared with adenoviral vector encoding β-gal
Protocol: Peptide-β-gal complexes (fusions) were injected into rabbit knee synovial lining, the lining as then removed, washed with wash buffer, fixed with 4% paraformaldehyde, and stained with β-gal.
as §1

MCA205 tumors = assay: Growth of MCA205 fibrosarcomas under daily intra-tumoral injection; assay type: in vivo; conditions: repeated administration
Protocol: To determine whether the death peptide could induce apoptosis in tumor cells and inhibit tumor growth in vivo, C57BL/6 mice bearing day 7 tumors in each […] (seeded with 1×10^5 MCA205 cells) were injected daily for 10 days with a 50 μl volume of 1 mM death peptide (SEQ ID NO:24; DP1) or the apoptotic peptide alone (SEQ ID NO:23; KLA) or a saline mock into both tumors. Five mice were used in each group. Tumor volume was estimated by multiplying maximum length×width^2. Separately, C57BL/6 with single, day 12 tumors were injected with 1 mM death peptide (SEQ ID NO:24; DP1), apoptotic peptide alone (SEQ ID NO:23; KLA) or saline for eleven days. Ten mice comprised each group. On the final day, the mice were injected with the appropriate saline or peptide solution and sacrificed 3 hours post-injection. Tumors were paraffin-embedded, sectioned, and stained for TUNEL and counterstained with methyl green or stained with hematoxylin and eosin to reveal histologic architecture.

rabbit synovial cells = assay: Peptide-β-gal internalization, X-gal staining; assay type: cell-based; conditions: rabbit (primary) synovial cells; FIG. 2, 6B
Protocol: as §2, §3

[2] = system: rabbit synovial fibroblasts; assay: Internalization of Cy3-labeled peptide/M13 phage complex; assay type: cell-based; conditions: FIG. 13D vs control phage
Text: Therefore, the peptides of the present invention are useful for facilitating the internalization of virus and viral vectors.

Hig-82 cells [3] = assay: Peptide competition assay for internalization of peptide-conjugated β-gal; assay type: cell-based, rabbit; conditions: for blocking of internalization of peptide-conjugated β-gal by non-biotinylated peptide: FIG. 5, conjugates of peptide 2, 3, 4 and 5, 3 hours at 37° C.
Protocol: A peptide competition assay was carried out to determine the relative efficiency and specificity of the various peptides. The peptides were conjugated to β-gal as described above in Example 4 and incubated with Hig-82 cells grown to 85% confluency in 24 well plates in the presence of non biotinylated peptides for 3 hours at 37° C. in TBS buffer while being gently rotated. The cells were then washed 10 times with TBS buffer, fixed with 4% paraformaldehyde at room temperature for 30 minutes, washed 3 times with TBS buffer, and stained with Xgal, as described above in Example 4, overnight. Cells which stained blue had internalized peptide-conjugated β-gal.

human synovial cells = assay: Peptide-β-gal internalization, X-gal staining; assay type: cell-based; conditions: human (primary) synovial cells; FIG. 3, 6C
Protocol: as §2, §3

NIH3T3 cells = assay: Peptide-β-gal uptake, X-gal staining; assay type: cell-based, murine; conditions: FIG. 6I
Protocol: as §3, with “Cells which were blue indicated the presence of β-gal in the cells.” left out, “cargo). […]” for “cargo).”

HIG82 cells = assay: Cell viability by MTT assay (OD 570 nm); assay type: cell-based, rabbit; conditions: HIG-82 cells; 100-3.1 μM peptide, three hours; FIG. 14, 15
Protocol: 2×10^5 cells (HIG82, MCA205 or Jurkatt) were seeded into 24 well plates. Forty-eight hours later, 100 μM, 50 μM, 25 μM, 6.25 μM and 3.1 μM of the either the death peptide (SEQ ID NO:24), peptide 5 alone (SEQ ID NO:5) or the apoptotic peptide alone (SEQ ID NO:23) was added to the cells. To check for cell viability, three hours later, the media was aspirated and 1 ml of scrum-free media containing 0.25 mg of MTT was added to each well and incubated for 4 hours at 37° C. MTT-containing media was then removed and 1 ml of absolute isopropanol containing 0.4N HCl was added. Photographs were taken of the plates, then the cells were harvested and any debris was centrifuged. OD as taken at λ=570 nm. Each sample point was performed in triplicate.

CD34+/LIN− stem cells = assay: Transduction with biotin-peptide/avidin-β-gal complex; assay type: cell-based; conditions: FIG. 17
Text: Peptide 5 is biotin labeled and the β-gal is avidin labeled so that they may be linked together by an avidin/biotin interaction. The cells which stained dark were transduced with the peptide/β-gal complex as indicated by an arrow.

[4] = system: MCA205 murine fibrosarcoma cells; assay: Peptide-β-gal uptake, X-gal staining; assay type: cell-based; conditions: FIG. 6H
Protocol: as §3
(§4) FIG. 9A is a schematic representation of the expression construct encoding the peptide5-eGFP fusion protein.

[5] = system: human β islet primary cells; assay: Peptide-β-gal uptake, X-gal staining; assay type: cell-based; conditions: FIG. 6F
Protocol: as §3, §4

[6] = system: C2C12 murine myoblast cells; assay: Peptide-β-gal uptake, X-gal staining; assay type: cell-based; conditions: FIG. 6G
Protocol: as §3, §4

[7] = system: MDCK polarized canine kidney cells; assay: Peptide-β-gal uptake, X-gal staining; assay type: cell-based; conditions: FIG. 6E
Protocol: as §3, §4

[8] = system: HBE 144 primary human airway epithelial cells; assay: Peptide-β-gal uptake, X-gal staining; assay type: cell-based; conditions: FIG. 6D
Protocol: as §3, §4

Hig-82 cells [9] = assay: Internalization of peptide-streptavidin-488 complex, fluorescence and confocal microscopy; assay type: cell-based, rabbit
Text: See Bayer et al., Histochem. Cytochem. 24:933-939 (1976); Ivanenkov & Menon, Biochim. Biophys. Acta. 1448:463-472 (1999). The use of the 488 flourescent marker allows for analysis of the treated cells by confocal microscopy to determine the exact location of the complexes in the cells.

human dendritic cells = assay: Internalization of peptide5-eGFP fusion protein, fluorescence; assay type: cell-based; conditions: peptide fused to eGFP; FIG. 9F-G
human islets = assay: as above; assay type: cell-based; conditions: peptide fused to eGFP; FIG. 9B-E
[10] = FIG. 12, 100 fold excess of competitor

Sequence | β-gal staining / internalization in murine tumors in vivo (MCA 205 tumor cells) | transduction/transfer activity of the peptide (in words) (Hig-82 cells [1]) | level of uptake of β-gal into rabbit synovial lining (rabbit synovial lining) | internalization of β-gal (rabbit synovial cells) | internalization of intact M13 phage (and nuclear localization of protein complexes) [2] | blocking of internalization of peptide-conjugated β-gal by non-biotinylated peptide (Hig-82 cells [3]) | also measured
RQIKIWFQNRRMKWKK (antennepedia) [antennapedia peptide, reference compound] | facilitate the internalization of β-gal into murine tumor cells in vivo |  |  |  |  |  | 
ARPILEHGSDKAT (ARPLEHGSDKAT; random peptide library) [reference compound] |  | does not have activity | no uptake |  |  |  | 
RRQRRTSKLMKRGGKLAKLAKKLAKLAK [death peptide] |  |  |  |  |  |  | side-effects in treated mice (MCA205 tumors): no obvious side-effects
YGRKKRRQRRR (human) [TAT-PTD, reference compound] |  |  | highest level of uptake |  |  |  | 
PPRLRKRRQLNM (random peptide library) [peptide 3] | facilitate the internalization of β-gal into murine tumor cells in vivo | intermediate activity |  | facilitate the internalization of β-gal into rabbit synovial cells | able to facilitate internalization and nuclear localization of protein complexes as well as intact M13 phage |  | relative strength of internalization of β-gal (concentration needed) (Hig-82 cells [1]): achieved internalization of β-gal at a slightly higher concentration
KRIHPRLTRSIR (random peptide library) [peptide 2] |  | intermediate activity |  |  | able to facilitate internalization and nuclear localization of protein complexes as well as intact M13 phage |  | 
MHKRPTTPSRKM (random peptide library) [peptide 6] |  | only weakly able to transduce cells |  |  |  |  | transduction/transfer activity of the peptide (in words) (Hig-82 cells [1]; listed as SEQ ID NO:6): lower activity; inhibition of uptake of peptide 2 and 3 (Hig-82 cells [3]; FIG. 12): able to inhibit
RRQRRTSKLMKR (random peptide library) [peptide 5] | significant β-gal staining; also recorded: facilitate the internalization of β-gal into murine tumor cells in vivo | highly active | highest level of uptake | facilitate the uptake of β-gal | detected in the treated cells | blocked the internalization of peptide 2 through peptide 6-conjugated β-gal | internalization of β-gal (human synovial cells): facilitate the internalization of β-gal into human synovial cells; also recorded: facilitate the uptake of β-gal; uptake of β-gal (NIH3T3 cells): facilitate the uptake of β-gal; relative strength of internalization of β-gal (concentration needed) (Hig-82 cells [1]): effect internalization of β-gal linked thereto at a concentration equal to or less than TAT-PTD; uptake of β-gal (Hig-82 cells [1]; FIG. 6A, HIG-82 cells): facilitate the uptake of β-gal; inhibition of uptake of TAT-PTD and peptide 5 itself (Hig-82 cells [3]; [10]): significantly inhibit; inhibition of uptake of peptides 3, 4 and antennapedia peptide (Hig-82 cells [3]; [10]): completely inhibit; cell viability (MTT, OD570) (HIG82 cells): did not impair viability; synovial cells with uptake of β-gal in vivo (rabbit synovial lining; FIG. 4B, histology, eosin counter-stain): ~100%; transduction of stem cells with β-gal (CD34+/LIN− stem cells): transduce CD34+/LIN− stem cells; uptake of β-gal [4]: facilitate the uptake of β-gal; uptake of β-gal [5]: facilitate the uptake of β-gal; uptake of β-gal [6]: facilitate the uptake of β-gal; uptake of β-gal [7]: facilitate the uptake of β-gal; uptake of β-gal [8]: facilitate the uptake of β-gal; internalization of streptavidin-488 complex (Hig-82 cells [9]; FIG. 13A, biotinylated peptide coupled to streptavidin-488): efficient internalization; nuclear localization of peptide-streptavidin-488 complex (Hig-82 cells [9]; FIG. 13B, confocal microscopy): significant percentage of the peptide-streptavidin-488 complex being found in the nucleus; internalization of eGFP (human dendritic cells): facilitate the internalization of EGFP in human dendritic cells; internalization of eGFP (human islets): facilitate internalization of eGFP in human islets
PIRRRKKLRRLK (random peptide library) [peptide 4] |  | highly active | highest level of uptake |  | able to facilitate internalization and nuclear localization of protein complexes as well as intact M13 phage | blocked the internalization of peptide 2 through peptide 6-conjugated β-gal | 
KRIIQRILSRNS (random peptide library) [peptide 1] |  | lower activity |  | facilitate the internalization of β-gal into rabbit synovial cells |  | did not block the internalization by any of the peptides | internalization of β-gal (human synovial cells): facilitate the internalization of β-gal into human synovial cells
